Results on four molecules are retold here after article PMC12477080, “Polychlorinated biphenyls (PCBs) interact with drug metabolism in vivo” (Archives of Toxicology, 2025).

For series [1], the system named is CYP2C9. As to the kind of experiment: CYP phenotyping cocktail clinical study: torsemide/OH-torsemide metabolic ratio and its association with PCB plasma levels. The following applies: linear regression of MR AUC0–8 h OH-torsemide/torsemide (CYP2C9 activity) on PCB plasma concentration. The procedure: (§1) The participants were ascertained not to have any acute disease by medical history, physical examination, laboratory screening, including hematological and biochemical blood tests, and a 12-lead electrocardiogram. […] The demographic data of the subjects are summarized in Table 1 in the supplemental data. At the enrollment visit, 2 blood samples (9 ml each) were collected into ethylenediaminetetraacetic acid (EDTA)-containing tubes taken from each subject for analyzing the plasma concentrations of PCB congeners and for pharmacogenetic analysis.
(§2) Participants stayed fasted from the evening before until 3 h after drug administration. After that, a meal was provided. Water and juice were permitted but alcoholic and caffeinated beverages were not allowed from the evening before drug administration until the last blood sample was taken on the next day. Venous blood samples (9 ml each) were collected through an intravenous catheter immediately before and 0.25, 0.5, 0.75, 1, 1.5, 2, 2.5, 3, 4, 5, 6, 7, 8, and 24 h after drug administration. Blood was drawn into EDTA-coated tubes, centrifuged at 1500 g for 10 min at 4 °C, and plasma samples were subsequently stored at − 80 °C until further analysis. After completely voiding the bladder immediately before drug administration, the participants collected urine from 0 to 24 h after drug administration. After weighing the collected urine, a 10 ml aliquot of each fraction was taken.
(§3) Commercially sourced standards and internal standards were used for quantification (see Supplemental Materials). In brief, 20 µl of the plasma samples were protein-precipitated with 80 µl methanol containing all internal standards or were treated for 16 h at 37 °C with 2 µl β-glucuronidase (1,000,000 Units) for deconjugation before protein precipitation with 78 µl methanol containing internal standards. Samples were centrifuged for 20 min, at 4 °C and 17,000 × g, and 40 µl of the supernatants were diluted with 40 µl LC–MS grade water, centrifuged again for 5 min at 4 °C and 17,000 × g and 50 µl supernatant were transferred to LC–MS vials 5 µl of the samples were injected into the LC–MS system.
(§4) An Agilent 1290 Infinity II UHPLC coupled with a SCIEX QTRAP6500 + triple quadrupole mass spectrometer was used. Chromatographic separation was achieved on an Agilent Poroshell 120 EC-C18 (1.9 µm, 2.1 × 50 mm) column with A: 0.1% formic acid in water and B: methanol with a flow rate of 0.7 ml/min and a total run time of 8.5 min. Analytes were eluted using a gradient program. The following gradient steps represent gradual changes in % B over time: 5% B from 0 to 0.2 min, 30% B at 2 min, 34% B at 4.8 min, 95% B at 6.5 min, 95% B at 7.5 min and re-equilibrating to 5% B at 7.7 min and 5%B till 8.5 min. A representative chromatogram is shown in supplemental Fig. 2. The scheduled MRM mode was applied for analyte detection in both positive and negative ESI modes (Supplementary Table 4). Calibration curves were constructed with linear regression using weighted (1/x^2) models (detailed information in supplemental methods).
(§5) Partial areas under the plasma concentration–time curves from 0 to 3 h (AUC0–3 h), from 0 to 4 h (AUC0–4 h), and from 0 to 8 h (AUC0–8 h) were calculated based on measured concentrations by the linear trapezoidal rule without extrapolation. […] Metabolic ratios (MR) were calculated by dividing the partial AUC of the metabolite by the respective partial AUC of the parent drug. The MRs were used as biomarkers for the individual CYP activities of the study subjects.

Series [2] in a line: Determination of PCB concentrations in plasma of HELPcB and control participants. The conditions noted are these: human plasma. In kind it is in vivo. The procedure:
The laboratory regularly participates in round robins for the determination of PCBs in plasma (www.g-equas.de).
Plasma concentrations of PCB congeners were quantified in blood samples from all participants using gas chromatography/mass spectrometry (GC–MS) (Fig. 2A and Supplementary Table 2). A total of 19 PCB congeners were measured in control (n = 10) and HELPcB (n = 10) participants, with PCBs detected in all individuals. […] In the control group, PCB plasma concentrations primarily reflected background environmental exposure, such as dietary intake, representing the general population’s burden.

Series [3] relates to CYP2D6. Kind of series: CYP phenotyping cocktail clinical study: metoprolol/α-OH-metoprolol metabolic ratio and its association with PCB plasma levels. The conditions noted are these: linear regression of MR AUC0–8 h α-OH-metoprolol/metoprolol (CYP2D6 activity) on PCB plasma concentration. The procedure:
as §1, §2, §3, §4, §5

Series [4] has as its system CYP1A2. Kind of series: CYP phenotyping cocktail clinical study: caffeine/paraxanthine metabolic ratio and its association with PCB plasma levels. The conditions noted are these: linear regression of MR AUC0–8 h paraxanthine/caffeine (CYP1A2 activity) on PCB plasma concentration. The procedure:
as §1, §2, §3
An Agilent 1290 Infinity II UHPLC coupled with a SCIEX QTRAP6500 + triple quadrupole mass spectrometer was used. […]
Partial areas under the plasma concentration–time curves from 0 to 3 h (AUC0–3 h), from 0 to 4 h (AUC0–4 h), and from 0 to 8 h (AUC0–8 h) were calculated based on measured concentrations by the linear trapezoidal rule without extrapolation. […] Metabolic ratios (MR) were calculated by dividing the partial AUC of the metabolite by the respective partial AUC of the parent drug. […]

The target of series [5] is T1, Human CYP1A2 (Homo sapiens, UniProt P05177).
T1 construct: purchased; host or cells: insect cells
T1 sequence (P05177 2-516 limits assumed): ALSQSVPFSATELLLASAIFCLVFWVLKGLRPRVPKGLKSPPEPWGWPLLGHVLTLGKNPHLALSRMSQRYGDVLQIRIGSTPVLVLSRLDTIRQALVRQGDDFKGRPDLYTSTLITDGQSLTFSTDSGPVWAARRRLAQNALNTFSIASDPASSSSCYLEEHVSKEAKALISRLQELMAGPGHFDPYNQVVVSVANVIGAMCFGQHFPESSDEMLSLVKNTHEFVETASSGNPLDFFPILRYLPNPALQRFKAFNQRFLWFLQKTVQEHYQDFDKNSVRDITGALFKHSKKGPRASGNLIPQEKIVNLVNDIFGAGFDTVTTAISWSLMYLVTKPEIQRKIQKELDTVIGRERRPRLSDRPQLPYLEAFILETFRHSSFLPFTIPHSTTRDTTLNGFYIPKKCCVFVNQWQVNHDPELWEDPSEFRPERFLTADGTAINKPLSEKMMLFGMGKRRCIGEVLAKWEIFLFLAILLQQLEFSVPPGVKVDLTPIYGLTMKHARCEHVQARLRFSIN
Kind of series: In vitro metabolism by CYP1A2 Supersomes. In kind it is in vitro ADME. The procedure: To investigate the metabolism of PCB118 by CYP1A2, incubation assays were conducted using CYP1A2 supersomes in a total reaction volume of 100 µL. Reaction mixtures were assembled on ice. […] Reactions were initiated by the addition of CYP1A2 supersomes.
To assess potential non-enzymatic transformations and confirm NADPH-dependent metabolism, control incubations were performed under the following conditions: buffer and enzyme only (no-substrate control), substrate, buffer, and NADPH without enzyme (no-enzyme control), and substrate, buffer, and enzyme without NADPH (no-NADPH control). Each experimental condition was conducted in triplicate, while control conditions were performed as single replicates.
The resulting supernatants (100 µL) were transferred to LC–MS vials, yielding samples with 80% methanol content for analysis. For the detection of hydroxylated PCB metabolites, reactions were stopped by adding 500 µL methanol, followed by the addition of 50 µL of an internal standard mix (10 ng/mL). Samples were vortexed for 1 min and centrifuged at 4,500 rpm for 10 min. The resulting supernatants were transferred to glass LC vials and evaporated under a nitrogen stream at 45 °C until approximately 50 µL remained. Samples were then reconstituted in 100 µL of 0.1 M ammonium acetate buffer (pH 5.3) before transfer to inserts for LC–MS analysis.
To determine whether PCB118 serves as a substrate for CYP1A2 and could act as a competitive inhibitor for other CYP1A2 substrates, we conducted in vitro metabolism experiments. […] In parallel, CYP1A2-mediated metabolism of PCB118 was assessed. […] The identity of 4-OH-CB107 was verified by comparison with an authentic reference standard, showing identical retention time and spectral characteristics (supplemental Fig. 1).

A short description of series [6]: Stability of substrates and metabolites in quality control samples (benchtop, autosampler, freeze-thaw). The following applies: for Autosampler stability (24 h) Av. Accuracy (%): 10° C for 24 hours in the autosampler; for 3x freeze-thaw Av. Accuracy (%): after three freeze-thaw cycles; for Benchtop stability (19 h) Ac. Accuracy (%): room temperature for 19 hours. In kind it is physicochemical. The source says: The method was validated for intra- and interday accuracy and precision, stability, and matrix effects. […] Validation details are provided in Supplementary Tables 5–7 and supplemental Fig. 3. Glucuronidase/sulfatase digests were used to isolate CYP-specific metabolic activities, reducing interference from polymorphic UDP-glucuronosyltransferase (UGT) and sulfotransferase isoforms.
Supplemental table 6: Stability of the substrates and metabolites. Quality control samples were left at room temperature for 19 hours (benchtop stability) and at 10° C for 24 hours in the autosampler (autosampler stability) or were measured after three freeze-thaw cycles. Stability samples were measured against a freshly prepared set of calibrators and quality control samples.

The test system of series [7] is CYP1A2 mRNA. Kind of series: CYP1A2 mRNA expression in primary human hepatocytes (qRT-PCR). In kind it is cell-based. The conditions noted are these: three donors, 48 h exposure, PCB118 0.1–0.5 µM, omeprazole positive control. Background: Quantitative PCR measures a nucleic acid by following its amplification.

For `Clc1cc(Cl)c(-c2ccc(Cl)c(Cl)c2Cl)cc1Cl` [PCB138], the t value in series [1] is reported as 0,341; in series [1] (PM excl) it was 0,219; in series [3], 0,157; in series [4], 0,221. Besides, the “β (standardized regression coefficient)” value in series [1] is 0,080; in series [1] (PM excl) it was 0,053; in series [3], 0,037; in series [4] it was 0,052. In series [2] (HELPcB (occupationally exposed) group), the “PCB plasma concentration, Mean [±SD] HELPcB” value is 0.795 ± 0.593 ng/mL. Also, in series [2] (HELPcB group, N 10), the “PCB plasma concentration, Geometric mean, HELPcB” value amounted to 0.672 ng/mL. Also, the “PCB plasma concentration, Mean [±SD] all” value in series [2] (all participants) came to 0.493 ± 0.516 ng/mL. Besides, the “PCB plasma concentration, Mean [±SD] control” value in series [2] (control group (background exposure)) was 0.191 ± 0.090 ng/mL. In series [2] (control group, N 10), the “PCB plasma concentration, Geometric mean, Control” value came to 0.173 ng/mL.

For the molecule `CCOc1ccc(NC(C)=O)cc1` [phenacetin, reference compound], in series [5] (10 µM substrate, 50 pmol/mL CYP1A2 supersomes, 2 mM NADPH, 1 h (phenacetin), 1 and 4 h (PCB118)), the “CYP1A2-mediated metabolism of the substrate” value is reported as “efficiently catalyzed the O-de-ethylation of phenacetin to paracetamol”.

Consider `Oc1c(Cl)cc(-c2ccc(Cl)c(Cl)c2)c(Cl)c1Cl` [4-OH-CB107], for which the “NADPH dependency of metabolite formation from PCB118” value in series [5] (control incubations lacking NADPH, substrate, or enzyme) was “strictly NADPH-dependent”.

For the molecule `COc1ccc2[nH]c([S+]([O-])Cc3ncc(C)c(OC)c3C)nc2c1` (stereo not shown) [omeprazol, omeprazole, reference compound], the “Autosampler stability (24 h) Av. Accuracy (%)” value in series [6] (QC conc. 0,5 ng/ml) is given as 114,94%; in series [6] (QC conc. 0,25 ng/ml), 102,23%; in series [6] (QC conc. 60 ng/ml), 111,22%; in series [6] (QC conc. 150 ng/ml), 103,07%; in series [6] (QC conc. 1,5 ng/ml), 114,49%. Moreover, the “3x freeze-thaw Av. Accuracy (%)” value in series [6] (QC conc. 0,5 ng/ml) is listed as 112,03%; in series [6] (QC conc. 0,25 ng/ml), 112,67%; in series [6] (QC conc. 60 ng/ml), 106,21%; in series [6] (QC conc. 150 ng/ml), 105,55%; in series [6] (QC conc. 1,5 ng/ml), 111,42%. Besides, the “Benchtop stability (19 h) Ac. Accuracy (%)” value in series [6] (QC conc. 0,5 ng/ml) is 117,42%; in series [6] (QC conc. 0,25 ng/ml), 91,86%; in series [6] (QC conc. 60 ng/ml), 112,32%; in series [6] (QC conc. 150 ng/ml), 104,38%; in series [6] (QC conc. 1,5 ng/ml), 115,14%. For the same molecule, the “effect on CYP1A2 mRNA expression” value in series [7] is recorded as “strongly upregulated CYP1A2 expression”.
